Measurements reported in patent publication US20240299358A1, “COMPOSITIONS AND METHODS FOR DIAGNOSIS AND TREATMENT OF AUTOIMMUNE DISEASES” (DUKE UNIVERSITY, priority 2021, published 2024).

How the values were obtained:
eHsp90 [1] = test: In vivo tracking of eHsp90 expression in CIA mouse model of RA (flow cytometry, CryoViz imaging); conditions: 6 hours post tail vein injection, CD4 and CD8 T cells (FIG. 5B)
Method: FIG. 5A is a schematic of CIA mouse model of RA experimental design, wherein mice were inoculated with CIA on day 0) and 21. […] 6-hours post treatment mice were whole body cryopreserved. […] Gated regions indicate CD4 and CD8 T-Cell populations isolated from individual mice. eHsp90 expression in CD4 and CD8 T cells 6 hours post HS-131 or HS-198 treatment. N=3+SD. Experiments represent 3 biological replicates.
CIA Disease: Collagen was prepared at 4 mg/ml in 0.01 N acetic acid. Equal volumes of 4 mg/ml collagen and 5 mg/ml Freund's complete adjuvant were emulsified by hand mixing with syringes for approximately 5 min, at which point a bead of this material holds its form when placed in water. On study days 0 and 21, animals were anesthetized with isoflurane and given intradermal injections of a total of 400 μg of type II collagen in Freund's complete adjuvant at the base of the tail.
CryoViz™ Imaging: Whole mice were imaged at 10.23 μm×10.23 μm in-plane resolution using an Olympus MVX-10 microscope with a 1X objective and 0.63× magnification and 40 μm section thickness, using the Cryo Viz™ (BioInVision, Inc., Cleveland, USA). CryoViz™ is a fully automated, serial sectioning-and-imaging system which provides 3-dimensional, tiled, microscopic anatomical bright field and molecular fluorescence images over large fields-of-view such as a whole mouse. Images were acquired using a dual band FITC/TxRed fluorescence filter (Chroma, Inc., Rockingham, VT), a liquid crystal RGB filter and a low-noise monochrome camera. Raw images acquired by the Cryo Viz™ were processed to generate 3D color anatomical brightfield and molecular fluorescence volumes using the Cryo Viz™ Preprocessor software (BioIn Vision, Inc., Cleveland, Ohio). These 3D volumetric image data were then processed using the CryoViz™ 3D Visualizer software (BioInVision, Inc., Cleveland, USA) to obtain 3D reconstructed brightfield and fluorescence volume renderings and movies with 2D slice cutaway animations, showing the 2D/3D biodistribution of TxRed labeled HS-131 within the mouse volume.
This was consistently seen in cell culture, tumor cell xenografts and mouse models of spontaneous metastatic disease (Barrott et al. Chem Biol 20. 1187-1197 (2013)). […] To determine if this phenomenon occurred within the context of a fully functional immune system, the collagen induced arthritic (CIA) mouse model of human rheumatoid arthritis (RA) was utilized (Rice et al. Arthritis Rheum 58. 3765-3775 (2008)). Mice (DBA/IlacJ ˜8 weeks old) reliably develop polyarthritis when immunized against bovine type II collagen (Scarneo et al. Arthritis Res Ther 21, 292 (2019): Campbell et al., Ann Rheum Dis 56, 364-368 (1997)). The disease that occurs is usually non-symmetric, and any combination of paws/joints may be affected. Mice were injected […] with bovine collagen at Day (and then again 21 days later (FIG. 5A). This second injection triggered the development of the CIA related symptoms over the next several days within the joints. A primary mediator of local inflammatory responses in autoimmunity are invading T cell populations recognizing foreign antigens. To determine if invading T cells at sites of active disease expressed eHsp90, the animals were injected with HS-131 or HS-198. This was done at the peak of RA symptoms following the second immune challenge. After 6 hours, the animals were euthanized, immediately cryo-frozen in liquid nitrogen and cryo-sectioned (see, FIG. 5A).
Approximately, 500 40 μm slices were made and each slice imaged with both bright field and by fluorescence at Ex640 nm/Em680 nm. Evaluation of the biodistribution was then made by histological examination of individual slices and after in silico reconstruction of the entire mouse anatomy (see, FIGS. 5B-5E).

eHsp90 [2] = test: Flow cytometry uptake of fluor-tethered Hsp90 inhibitors by T cells from human PBMCs; type: cell-based
Method: T-cell activation: PBMC aliquots (ZenBio SER-PBMC-F) were washed in RPMI-1640 with 10% FBS and PSG and then rested overnight in a T-75 flask. The suspended cells were then transferred to a fresh flask and activated in fresh RPMI-1640/10% FBS/PSG by 3:20,000 anti-CD3 (BioLegend 317303), 3:20,000 anti-CD28 (BioLegend 302913), and 1:10,000 (30 IU/mL) human IL-2 (CST 8907SC) and incubated for up to 72 hours. In the experiments with longer activation, samples were diluted 1:3 into fresh media containing hIL-2 at 72 hours post initial stimulation with CD3/CD28 antibodies.
Flow Cytometry: The activated/rested cells were plated into a 96-well round bottom plate and pelleted at low speed. Cells were resuspended in chilled media containing titrated HS-131 or HS-198 (in 1% DMSO) and stained for 30 minutes at RT. Fluorochrome tagged inhibitors and media were washed away with a PBS wash, followed by a PBS wash containing 3% NMS. Surface antibody stains were performed in 3% NMS/PBS for 30 minutes followed by PBS washes (2x). Samples were analyzed on BD FACSCanto II flow cytometer. Permeabilized samples were prepared as previously described followed by fixation in 4% Formaldehyde/PBS overnight at 4° C. Sample analysis was performed with Flowing Software and FlowJo.
A hallmark of T cell function is to proliferate rapidly in response to antigen presentation along with appropriate cytokine and costimulatory signaling. This leads to the induction of the chaperone machinery which is essential in facilitating this process. In some respects, antigen induced T cell proliferation may be analogous to oncogene driven metastasis. Therefore, to investigate whether proliferating T cells similarly express eHsp90 during T cell activation, their ability to absorb fluor-tethered Hsp90 inhibitors following an anti-CD3/CD28 challenge was examined (see. FIGS. 2A-2E). The structures of two types of fluor-tethered Hsp90 inhibitors (HS-131 and […]) that were used in the present studies are shown in FIG. 2A. […]

Row | Structure (SMILES) | probe signal (eHsp90 expression) in T cells of PBMC populations from CIA mice by flow cytometry (eHsp90 [1]) | uptake of inactive analogue by stimulated T cells (eHsp90 [2]; 10 μM (FIG. 2D)) | fluor signal on competition with Hsp90 inhibitor (eHsp90 [2]; saturating dose, 10-fold excess of ganetespib over 10 μM HS-131 (FIG. 2D))
1 | Cc1nn(-c2ccc(C(=O)N(C)C)c(NCCCOCCOCCOCCOCCOCCCNCc3ccc(C(=C\C=C4/N(CCCCS(=O)(=O)O)c5ccccc5C4(C)C)/C=C/C4=[N+](CCCCS(=O)(=O)[O-])c5ccccc5C4(C)C)cc3)c2)c2c1C(=O)CC(C)(C)C2 [HS-198] | No signal | minimal uptake | –
2 | CC(C)c1cc(-c2n[nH]c(=O)n2-c2ccc3c(ccn3C)c2)c(O)cc1O [ganetespib, reference compound] | – | – | effectively blocked
